The supplement of paper PMC9402605

Key:
Test in all cases: number of L4/adult animals relative to DMSO control (development) (fraction of control); higher = more growth (less toxic); extreme values may be limits of the assay
Conditions in all cases: concentration unit: uM
CB1072 unc-29(e1072) = tested on: CB1072 unc-29(e1072)
Procedure: (§1)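 About 20 L1 larvae of wild-type or anthelmintic-resistant C. elegans strains were grown in 96-well plates with HB101 E. coli and a compound dilution series (0.6% DMSO). The number of L4/adult animals was counted after 72 h (day 7 for the slow-growing PR1152) and normalised to DMSO wells. Values are the mean of 3 biological replicates, each done in technical triplicate.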

CB3474 ben-1(e1880) = tested on: CB3474 ben-1(e1880)
Procedure: as §1

CF1038 daf-16(mu86) = tested on: CF1038 daf-16(mu86)
Procedure: as §1

[1] = tested on: DA1316 avr-14;avr-15;glc-1
Procedure: as §1

N2 = tested on: N2
Procedure: as §1

NM1968 slo-1(js379) = tested on: NM1968 slo-1(js379)
Procedure: as §1

PR1152 cha-1(p1152) = tested on: PR1152 cha-1(p1152)
Procedure: as §1

RB2119 acr-23(ok2804) = tested on: RB2119 acr-23(ok2804)
Procedure: as §1

RP2674 mev-1(tr393) = tested on: RP2674 mev-1(tr393)
Procedure: as §1

VC731 unc-63(ok1075) = tested on: VC731 unc-63(ok1075)
Procedure: as §1

O=C(NCCc1ncc(C(F)(F)F)cc1Cl)c1ccccc1C(F)(F)F [fluopyram]
number of L4/adult animals
Conditions | CB1072 unc-29(e1072) | CB3474 ben-1(e1880) | CF1038 daf-16(mu86) | N2 | NM1968 slo-1(js379) | PR1152 cha-1(p1152) | RB2119 acr-23(ok2804) | RP2674 mev-1(tr393) | VC731 unc-63(ok1075) | [1]
concentration: 0.09375 | 0.915 | 1.01 | 1.02 | 1.06 | 0.984 | 0.97 | 1.01 | 1.1 | 0.961 | 0.958
concentration: 0.1875 | 0.705 | 0.812 | 0.957 | 0.953 | 0.617 | 0.284 | 0.981 | 1.14 | 0.651 | 0.854
concentration: 0.375 | 0.689 | 0.674 | 0.451 | 0.712 | 0.0215 | 0 | 0.372 | 1.01 | 0.305 | 0.176
concentration: 0.75 | 0 | 0 | 0 | 0 | 0 | 0 | 0 | 0.999 | 0 | 0
concentration: 1.5 | 0 | 0 | 0 | 0 | 0 | 0 | 0 | 1.06 | 0 | 0
concentration: 3 | 0 | 0 | 0 | 0 | 0 | 0 | 0 | 1.03 | 0 | 0
concentration: 6 | 0 | 0 | 0 | 0 | 0 | 0 | 0 | 0.91 | 0 | 0

c1ccc([C@H]2CN3CCSC3=N2)cc1 [levamisole]
number of L4/adult animals
Conditions | CB1072 unc-29(e1072) | CB3474 ben-1(e1880) | CF1038 daf-16(mu86) | N2 | NM1968 slo-1(js379) | PR1152 cha-1(p1152) | RB2119 acr-23(ok2804) | RP2674 mev-1(tr393) | VC731 unc-63(ok1075) | [1]
concentration: 9.375 | 1.09 | 0.906 | 0.606 | 0.964 | 0.888 | 0.329 | 0.95 | 0.783 | 1 | 0.774
concentration: 18.75 | 1.07 | 0.964 | 0.91 | 0.973 | 0.984 | 0.207 | 0.812 | 0.942 | 1.03 | 1.01
concentration: 37.5 | 1.1 | 1.06 | 1.01 | 1.05 | 0.95 | 0.0255 | 0.632 | 1.04 | 0.996 | 0.984
concentration: 75 | 1.01 | 0.914 | 0.827 | 1.08 | 0.856 | 0.00498 | 0.47 | 0.914 | 1.09 | 0.871
concentration: 150 | 1.08 | 0.627 | 0.678 | 0.535 | 0.595 | 0 | 0.13 | 0.352 | 1.07 | 0.487
concentration: 300 | 0.988 | 0.403 | 0.335 | 0.218 | 0.0768 | 0 | 0.0225 | 0.0923 | 1.02 | 0.106
concentration: 600 | 1.04 | 0.0551 | 0.0591 | 0.0242 | 0 | 0 | 0 | 0.029 | 1.04 | 0.00556
